Assay results from BigSolDB 2.1.

CC(=O)c1cccc(O)c1
solubility (mole fraction)
Conditions | in benzene | in ethanol | in ethyl acetate | in isobutanol | in isopropanol | in methanol | in methyl acetate | in n-butanol | in n-propanol | in water
289.15 K | 0.00506 | 0.166 | 0.158 | 0.119 | 0.176 | 0.156 | 0.16 | 0.154 | 0.152 | 0.00073
292.15 K | 0.00532 | 0.175 | 0.168 | 0.126 | 0.184 | 0.169 | 0.171 | 0.163 | 0.161 | 0.00078
295.15 K | 0.00707 | 0.19 | 0.18 | 0.146 | 0.201 | 0.185 | 0.182 | 0.172 | 0.18 | 0.001
298.15 K | 0.00848 | 0.209 | 0.191 | 0.166 | 0.22 | 0.203 | 0.197 | 0.189 | 0.199 | 0.00106
301.15 K | 0.0122 | 0.225 | 0.199 | 0.184 | 0.236 | 0.22 | 0.209 | 0.203 | 0.211 | 0.00113
304.15 K | 0.015 | 0.245 | 0.214 | 0.205 | 0.256 | 0.239 | 0.229 | 0.221 | 0.23 | 0.00154
307.15 K | 0.0198 | 0.263 | 0.235 | 0.235 | 0.275 | 0.255 | 0.253 | 0.242 | 0.252 | 0.00172
310.15 K | 0.0238 | 0.287 | 0.254 | 0.265 | 0.3 | 0.279 | 0.274 | 0.261 | 0.274 | 0.00199
313.15 K | 0.0281 | 0.308 | 0.277 | 0.293 | 0.324 | 0.302 | 0.298 | 0.284 | 0.299 | 0.00245
316.15 K | 0.0308 | 0.335 | 0.304 | 0.32 | 0.349 | 0.328 | 0.324 | 0.309 | 0.329 | 0.00291
319.15 K | 0.037 | 0.361 | 0.333 | 0.348 | 0.372 | 0.349 | 0.346 | 0.335 | 0.36 | 0.00362
322.15 K | 0.0453 | 0.391 | 0.364 | 0.38 | 0.401 | 0.383 | 0.376 | 0.368 | 0.395 | 0.00456
325.15 K | 0.0614 | 0.42 | 0.384 | 0.421 | 0.431 | 0.409 | 0.407 | 0.402 | 0.425 | 0.00562
